# Results: ChEMBL document CHEMBL1135832, “Syntheses, calcium channel agonist-antagonist modulation activities, nitric oxide release, and voltage-clamp studies of 2-nitrooxyethyl 1,4-dihydro- 2,6-dimethyl-3-nitro-4-(2-trifluoromethylphenyl)pyridine-5-carboxylate enantiomers” (J Med Chem, 2002)
# Columns and labels:
# Assay type in all cases: functional
# Cavia porcellus [1] = species: Cavia porcellus; assay: In vitro NO ([…]) release by nitrite quanititation using Griess reaction
# Cavia porcellus [2] = species: Cavia porcellus; assay: In vitro calcium channel modulating activity in guinea pig left atrium (GPLA); conditions: Cardiac atrium
# Cavia porcellus [3] = species: Cavia porcellus; assay: In vitro NO ([…]) release by nitrite quanititation using Griess reaction in presence of N-acetyl-cysteamine
# Cavia porcellus [4] = species: Cavia porcellus; assay: In vitro NO ([…]) release by nitrite quanititation using Griess reaction without N-acetyl-cysteamine
SMILES,% of NO release (Cavia porcellus [1]),IC50 (Cavia porcellus [2]) [µM],% of NO release (Cavia porcellus [3]),% of NO release (Cavia porcellus [4])
CC1=NC(C)=C([N+](=O)[O-])[C@@H](c2ccccc2C(F)(F)F)/C1=C(\O)OCCO[N+](=O)[O-],1.09,–,–,–
CC1=NC(C)=C([N+](=O)[O-])[C@H](c2ccccc2C(F)(F)F)/C1=C(\O)OCCO[N+](=O)[O-],2.7,16,–,–
O=[N+]([O-])OCC(CO[N+](=O)[O-])O[N+](=O)[O-] [NITROGLYCERIN],–,–,5.3,0.18
